Experimental data published in PMC12866179, “Oxidized MIF is an Alzheimer’s disease drug target relaying external risk factors to tau pathology” (Cell Reports Medicine, 2025).

What was measured:
[1] = tested on: human brain organoids; assay: TUNEL assay in human brain organoids; format: cell-based
Experimental: 60 days old human brain organoids with an estimated cell number of 2.5x10^6 were preincubated with DMSO or 250 nM of PAV-174 for 1h (final DMSO concentration was 0.5%). Then organoids were infected with HSV-1 at an MOI of 0.1 or 1.0. At the next day the medium was renewed and new compound was added. After another 24h, the organoids were washed two times with PBS and then either fixed with 4% PFA at 4°C overnight (for immunocytochemistry and TUNEL assay) or lysed with cold RIPA buffer (50 mM Tris-HCL, pH 7.4, 1% NP-40, 0.5% Na-deoxycholate, 0.1% SDS, 150 mM NaCl, 5 mM EDTA, 50 mM NaF) plus 1X Protease inhibitor cocktail (Roche) and phosphatase inhibitor cocktail (Sigma) followed by 4x sonication for 30s using a Misonix ultrasonic water bath at 100% amplitude. Protein concentration was determined with the DC Protein Assay (Bio-Rad). For immunocytochemistry and TUNEL assay fixed organoids were embedded in paraffin and section of 5 μm were prepared.
Apoptotic cells in sections of brain organoids were detected by TdT-mediated dUTP-biotin nick end labeling (TUNEL) using the DeadEnd Fluorometric TUNEL System (Promega) according to the manufacturers recommendations. At least three 5-μm sections of the brain organoids were analyzed by taking at least 10 images of each organoid. Dead cells were counted using Fiji/ImageJ (NIH).

[2] = tested on: MIF-wt and MIF-C80W; assay: Stabilization of transiently expressed MIF in HEK-MIF-knockdown cells; format: cell-based, human; details: HEK-MIF-KO cells transfected with rescue constructs
Experimental: Transient transfection of HEK-MIF-knockdown cells with MIF-rescue constructs were carried out with lipofectamine 3000 according to the manufacturer’s recommendations. Briefly, 5x10^5 HEK-MIF-ko cells were seeded into 12-well plates. At the next day the cells were transfected with 2.5 μg of vector DNA. Cells were washed twice with PBS and lysed in PBS/1% NP40 48h after transfection.

[3] = tested on: HSV-1; assay: Plaque assay of HSV-1-infected SH-SY5Y-tau-P301S control and MIF-knockdown cells; format: cell-based, HSV-1 KOS strain
Experimental: Virus titer determination was carried out in 25-cm^2 flasks or 6-well plates with confluent Vero cells. The virus stock was serially diluted in Medium 199. 1 mL of each of the dilutions was added to the Vero cells in duplicates and incubated for 2h. Then the inoculum was aspirated and DMEM supplemented with 5% NBCS and 7.5 μg/mL human immunoglobulin (Sigma) was added. After two days the cells were washed twice with PBS and fixed with MeOH for 5 min at RT. Then 1:10 diluted KaryoMax Giemsa stain solution (Gibco) was added to the cells and incubated for 20 min at RT. Following washing with water the plaques were counted under the microscope and the titer was calculated.
4x10^5 Vero cells, 8x10^5 SH-SY5Y or 2x10^6 differentiated LUHMES (differentiation day 6) cells were seeded into 12-well plates. After 24h the cells were treated with compounds (as indicated in the figures) and after 1h they were infected with HSV-1 applying MOIs as described in the figures. After 20h (or at indicated time points) cells were either washed twice with PBS, then lysed in cold PBS/1% NP40 including the cOmplete EDTA-free protease inhibitor cocktail (Roche) and phosphatase inhibitor cocktail (Sigma) or virus was released by freeze-thawing and ultrasonic treatment for analysis in viral plaque assay (see above).
[…] Two-wa y ANOVA (Sidak´s post-hoc) […]

[4] = biological target: T1, oxMIF (Homo sapiens, UniProt P14174); assay: 15N-HSQC NMR binding to H2O2-treated wild-type MIF (oxMIF)
T1 construct: made in house; host or cells: E. coli BL21-(DE3)-Rosetta-pLysS, pET11a-MIF, then H2O2 treatment
T1 sequence (P14174 2-115 limits assumed): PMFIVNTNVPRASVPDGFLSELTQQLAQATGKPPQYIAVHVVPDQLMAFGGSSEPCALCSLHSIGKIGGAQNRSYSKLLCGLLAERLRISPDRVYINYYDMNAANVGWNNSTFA
Experimental: The NMR F1-[^13C,^15N]-filtered-[^1H,^1H]-NOESY spectra for structure calculation were recorded on a 700 MHz Bruker Avance Neo spectrometer equipped with cryoprobe, and the ^15N-HSQC were recorded on a 600 MHz Bruker Avance III spectrometer equipped with cryoprobe. The filtered NOESY were recorded for MIF 1.0 mM and saturation of PAV-174, i.e., 1.0 mM of PAV-174. at 310K to reduce the rotational correlation time of the system, with two different mixing times 60 and 100ms; the free induction decay was measured for 106ms (2048 points) and the indirect dimension was set to 20ms (400 points); the signal acquisition was performed with 160 scans and the interscan delay was set to 1.5s. The ^15N-HSQC were measured at 298K with 121ms (2048 points) in the direct dimension and 53 ms (256 points) in the indirect dimension; the signal acquisition was performed through the accumulation of 16 scans and an interscan delay of 1s was applied. The cross-peaks corresponding to ligand-proteins were used to derive ligand-protein distant restraints using the initial rates of the normalized NOE intensity build-up curves.[91] […] The intermolecular distance restraints were kept semiambiguous, i.e., only the ligand signals were assigned, and the MIF- PAV-174 complex was calculated with the NMR^2 software[92] using the CYANA software for tortion angle dynamics structure calculation.

Q: For `CCc1cc(N2CCCC2)cc2[s+]c3cc(N4CCCC4)cc(C)c3nc12.[I-]` [PAV-174, 3,7-Di(pyrrolidine-1-yl) 1-ethyl-9-methyl-phenothiazin-5-ium iodide], which “induction of apoptosis in human brain organoids” value [1] is on record?
A: no induction of apoptosis

Q: What about the “cell toxicity mediated by HSV-1 infection (TUNEL-positive cells)” value ([1]; HSV-1-infected brain organoids) of the same compound?
A: lowered cell toxicity mediated by HSV-1 infection

Q: And the “stabilization of MIF-wt and MIF-C80W” value [2]?
A: significant stabilization

Q: What about the “HSV-1 titer-lowering effect in MIF-knockdown cells” value [3] of the same compound?
A: did not exert comparable titer-lowering effects

Q: And the “binding to redMIF and oxMIF (chemical shift perturbations)” value [4]?
A: bound to both MIF species
